# Results reported in patent US9006440B2, “Furopyridine derivatives” (Merck Patent GmbH, priority 2010, dated 2015).
# Target: T1, Syk (Homo sapiens, UniProt P43405)
# T1 construct: purchased BPS Bioscience, CA, USA
# Experiment: Syk enzyme assay (SYK flash plate assay / Caliper mobility shift)
# Assay type: biochemical
# Experimental: The kinase assay is performed either as 384-well Flashplate assay (for e.g. Topcount measurement) or as 384-well Image-Flashplate assay (for LEADseeker measurement).
# 2.5 nM SYK, 400 nM Biotin-Aha-Aha-KEDPDYEWPSAKK
# and 10 μM ATP (spiked with 0.3 μCi 33P-ATP/well) are incubated in a total volume of 50 μl (60 mM Hepes, 10 mM MgCl2, 1.2 mM Dithiothreitol, 0.02% Brij35, 0.1% BSA, pH 7.5) with or without test compound for 1 hours at 30° C. The reaction is stopped with 25 μl 200 mM EDTA. After 30 Min at 30° C. the liquid is removed and each well washed thrice with 100 μl 0.9% sodium chloride solution. Non-specific reaction is determined in presence of 0.1 μM Staurosporine. Radioactivity is measured with Topcount (when using Flashplates) or with LEADseeker (when using Image-Flashplates) respectively. Results (e.g. IC50-values) are calculated with program tools provided by the IT-department (e.g. Symyx Assay Explorer, Genedata Screener). Enzymatic Assays Using the Caliper LifeSciences Technology
# The assays described here are performed on the Caliper Life Sciences LC3000 system This technology provides data on enzyme activity via measurement of the relative amounts of phosphorylated or unphosphorylated fluorescently labelled substrate peptide at the end of an enzymatic reaction. These different states of peptide are resolved by applying a potential difference across the sample. The presence of the charged phosphate group on the product (as opposed to the substrate) causes a different peptide mobility between the two peptides. This is visualized by excitation of the fluorescent label on the substrate and product peptides and represented as peaks within the analysis software.
# In order to measure inhibitor activity of kinase inhibitors on this technology, a TTP Mosquito liquid handling instrument is used to place 0.25 ul of the appropriate concentration of inhibitor in 100% DMSO (for a dose response curve calculation) into each well of a 384-well plate. To this reaction components are added to a final volume of 25 ul. The table below indicates the sequences and concentrations for the assays described in this report. Standard components are 1 mM DTT (Sigma, D0632), 1 mM MgCl2 (Sigma, M1028), 100 mM HEPES pH 7.5 (Calbiochem, 391338), 0.015% Brij-35 (Sigma, B4184).
# The reaction is incubated for 90 min at 25 C, and then stopped by the addition of 70 ul of Stop buffer (100 mM HEPES pH 7.5, 0.015% Brij-35, 10 mM EDTA (Sigma, E7889)).
# The plate is read on a Caliper LC 3000 in an Off-Chip mobility shift assay format, on a 12-sipper chip. Unphosphorylated substrate and phosphorylated product peptide resolve as separate peaks allowing direct measurement of percentage of conversion of substrate to product. The percent conversion can be plotted against concentration of inhibitor to produce a sigmoidal dose response curve, from which an IC50 can be calculated using GeneData Condoseo or a similar product.
row,Compound,IC50
1,"O=C(Nc1ccc(Oc2ccnc3cc(-c4ccccc4)oc23)cc1)c1cccn(-c2ccc(F)cc2)c1=O [Compound B13, 1-(4-Fluoro-phenyl)-2-oxo-1,2-dihydro-pyridine-3-carboxylic acid [4-(2-phenyl-furo[3,2-b]pyridin-7-yloxy)-phenyl]-amide]",0.3 to 3 µM
2,"COc1cc(-c2cc3nccc(-c4ccc5ncccc5c4)c3o2)cc(OC)c1OC [Compound A23, 6-[2-(3,4,5-Trimethoxy-phenyl)-furo[3,2-b]pyridin-7-yl]-quinoline]",< 0.3 µM
3,"COc1cc(-c2cc3nccc(-c4cccc5ccccc45)c3o2)cc(OC)c1OC [Compound A22, 7-Naphthalene-1-yl-2-(3,4,5-trimethoxy-phenyl)-furo[3,2-b]pyridine]",0.3 to 3 µM
4,"COc1ccc(-c2cc3nccc(-c4ccc(OC)c(OC)c4)c3o2)cc1OC [Compound B39, 2,7-Bis-(3,4-dimethoxy-phenyl)-furo[3,2-b]pyridine]",0.3 to 3 µM
5,"Fc1cc(F)cc(-c2cc3nccc(-c4cc(F)cc(F)c4)c3o2)c1 [Compound B1, 2,7-Bis-(3,5-difluoro-phenyl)-furo[3,2-b]pyridine]",3 to 50 µM
6,"COc1cc(-c2cc3nccc(-c4ccccc4C)c3o2)cc(OC)c1OC [Compound A21, 7-o-Tolyl-2-(3,4,5-trimethoxy-phenyl)-furo[3,2-b]pyridine]",< 0.3 µM
7,"Cc1cccc(-c2cc3nccc(-c4cccc(C)c4)c3o2)c1 [Compound B34, 2,7-Di-m-tolyl-furo[3,2-b]pyridine]",3 to 50 µM
8,"COc1cc(-c2cc3nccc(-c4cnn(C)c4)c3o2)cc(OC)c1OC [Compound A34, 7-(1-Methyl-1H-pyrazol-4-yl)-2-(3,4,5-trimethoxy-phenyl)-furo[3,2-b]pyridine]",< 0.3 µM
9,"COc1cc(-c2cc3nccc(-c4cccc(C(=O)NCCN(C)C)c4)c3o2)cc(OC)c1OC [Compound A8, N-(2-Dimethylamino-ethyl)-3-[2-(3,4,5-trimethoxy-phenyl)-furo[3,2-b]pyridin-7-yl]-benzamide]",< 0.3 µM
10,"COc1cc(-c2cc3nccc(-c4ccc(C#N)cc4)c3o2)cc(OC)c1OC [Compound A12, 4-[2-(3,4,5-Trimethoxy-phenyl)-furo[3,2-b]pyridin-7-yl]-benzonitrile]",3 to 50 µM
11,"COc1cc(-c2cc3nccc(Nc4ccc5c(n4)NC(=O)C(C)(C)O5)c3o2)cc(OC)c1OC [Compound B29, 2,2-Dimethyl-6-[2-(3,4,5-trimethoxy-phenyl)-furo[3,2-b]pyridin-7-ylamino]-4H-pyrido[3,2-b][1,4]oxazin-3-one]",0.3 to 3 µM
12,"c1cc(-c2ccc3c(c2)OCCO3)c2oc(-c3ccc4c(c3)OCCO4)cc2n1 [Compound B37, 2,7-Bis-(2,3-dihydro-benzo[1,4]dioxin-6-yl)-furo[3,2-b]pyridine]",3 to 50 µM
13,"CCOc1ccn(-c2ccc(F)cc2)c(=O)c1C(=O)Nc1ccc(Oc2ccnc3cc(-c4ccccc4)oc23)cc1 [Compound B14, 4-Ethoxy-1-(4-fluoro-phenyl)-2-oxo-1,2-dihydro-pyridine-3-carboxylic acid [4-(2-phenyl-furo[3,2-b]pyridin-7-yloxy)-phenyl]-amide]",0.3 to 3 µM
14,"COc1cc(-c2cc3nccc(NCc4cccnc4N(C)S(C)(=O)=O)c3o2)cc(OC)c1OC [Compound B7, N-Methyl-N-(3-{[2-(3,4,5-trimethoxy-phenyl)-furo[3,2-b]pyridin-7-ylamino]-methyl}-pyridin-2-yl)-methanesulfonamide]",3 to 50 µM
15,"COc1cc(-c2cc3nccc(-c4ccc5cc[nH]c5c4)c3o2)cc(OC)c1OC [Compound A27, 7-(1H-Indol-6-yl)-2-(3,4,5-trimethoxy-phenyl)-furo[3,2-b]pyridine]",< 0.3 µM
16,"CCOC(=O)Cn1cc(-c2ccnc3cc(-c4cc(OC)c(OC)c(OC)c4)oc23)cn1 [Compound A33, {4-[2-(3,4,5-Trimethoxy-phenyl)-furo[3,2-b]pyridin-7-yl]-pyrazol-1-yl}-acetic acid ethyl ester]",< 0.3 µM
17,"COc1c(C)cc(-c2cc3nccc(-c4cc(C)c(OC)c(C)c4)c3o2)cc1C [Compound B32, 2,7-Bis-(4-methoxy-3,5-dimethyl-phenyl)-furo[3,2-b]pyridine]",3 to 50 µM
18,"COc1cc(-c2cc3nccc(-c4ccc(C(=O)NC5CCCC5)cc4)c3o2)cc(OC)c1OC [Compound B75, N-Cyclopentyl-4-(2-(3,4,5-trimethoxyphenyl)furo[3,2-b]pyridin-7-yl)benzamide]",3 to 50 µM
19,"CNC(=O)c1cccc(-c2ccnc3cc(-c4cc(OC)c(OC)c(OC)c4)oc23)c1 [Compound A7, N-Methyl-3-[2-(3,4,5-trimethoxy-phenyl)-furo[3,2-b]pyridin-7-yl]-benzamide]",< 0.3 µM
20,"COc1cc(-c2cc3nccc(-c4cc(C)c(OC)c(C)c4)c3o2)cc(OC)c1OC [Compound B73, 7-(4-Methoxy-3,5-dimethylphenyl)-2-(3,4,5-trimethoxyphenyl)furo[3,2-b]pyridine]",0.3 to 3 µM
21,"COc1cc(-c2cc3nccc(-c4ccnc5ccccc45)c3o2)cc(OC)c1OC [Compound A24, 4-[2-(3,4,5-Trimethoxy-phenyl)-furo[3,2-b]pyridin-7-yl]-quinoline]",0.3 to 3 µM
22,"COc1cc(-c2cc3nccc(-c4cccc5ncccc45)c3o2)cc(OC)c1OC [Compound A18, 5-[2-(3,4,5-Trimethoxy-phenyl)-furo[3,2-b]pyridin-7-yl]-quinoline]",0.3 to 3 µM
23,COc1cc(-c2cc3nccc(NCc4cccc(S(C)(=O)=O)c4)c3o2)cc(OC)c1OC [Compound B9],3 to 50 µM

# Second part, the molecule after the results:
row,IC50,Compound
1,0.3 to 3 µM,Cn1cc(-c2ccnc3cc(-c4ccc(OC(F)(F)F)cc4)oc23)cn1 [Compound C32]
2,< 0.3 µM,Cn1ncc2cc(-c3cc4nccc(-c5cccc(C(=O)N[C@@H]6CCCC[C@@H]6N)c5)c4o3)ccc21 [Compound C175]
3,< 0.3 µM,COc1cc(-c2cc3nccc(-c4ccc5[nH]c(=O)[nH]c5c4)c3o2)cc(OC)c1OC [Compound C56]
4,3 to 50 µM,CN1CCN(c2cc(-c3cc4nccc(-c5ccnc(N6CCN(C)CC6)c5)c4o3)ccn2)CC1 [Compound C96]
5,0.3 to 3 µM,COc1cc(-c2cc3nccc(-c4cccc(C(=O)NCC5CCCN5C(=O)OC(C)(C)C)c4)c3o2)cc(OC)c1OC (stereo not drawn) [Compound C7]
6,0.3 to 3 µM,c1ccc(-c2ccnc3cc(-c4ccc(N5CCOCC5)cc4)oc23)cc1 [Compound C50]
7,< 0.3 µM,COc1cc(-c2cc3nccc(-c4ccc5[nH]c(-c6cn[nH]c6)nc5c4)c3o2)cc(OC)c1OC [Compound C90]
8,< 0.3 µM,CNC(=O)COc1cccc(-c2ccnc3cc(-c4cc(OC)c(OC)c(OC)c4)oc23)c1 [Compound C8]
9,0.3 to 3 µM,COc1cccc(-c2cc3nccc(-c4ccccc4)c3o2)c1 [Compound C15]
10,0.3 to 3 µM,Cn1cc(-c2ccnc3cc(-c4ccc(OCCN5CCCCC5)cc4)oc23)cn1 [Compound C36]
11,3 to 50 µM,c1cncc(-c2ccnc3cc(-c4ccc(N5CCOCC5)nc4)oc23)c1 [Compound C39]
12,< 0.3 µM,COc1cc(-c2cc3nccc(-c4cnc(F)cc4C)c3o2)cc(OC)c1OC [Compound C23]
13,0.3 to 3 µM,COc1cc(-c2cc3nccc(-c4ccc(OC5CCOCC5)nc4)c3o2)cc(OC)c1OC [Compound C28]
14,< 0.3 µM,COc1cc(-c2cc3nccc(-c4ccccc4O)c3o2)cc(OC)c1OC [Compound C85]
15,0.3 to 3 µM,COc1cc(-c2cc3nccc(-c4ccc[nH]4)c3o2)cc(OC)c1OC [Compound C105]
16,< 0.3 µM,COc1cc(-c2cc3nccc(-c4cccnc4)c3o2)cc(OC)c1OC [Compound C13]
17,0.3 to 3 µM,Cn1cc(-c2ccnc3cc(-c4ccc([S+](C)[O-])cc4)oc23)cn1 (stereo not drawn) [Compound C54]
18,0.3 to 3 µM,Cc1noc(C)c1-c1cc2nccc(-c3cnn(C)c3)c2o1 [Compound C22]
19,< 0.3 µM,COc1cc(-c2cc3nccc(-c4cccc(C(=O)NCc5cc[nH]n5)c4)c3o2)cc(OC)c1OC [Compound C10]
20,0.3 to 3 µM,c1ccc(-c2ccnc3cc(-c4ccc(N5CCOCC5)nc4)oc23)cc1 [Compound C25]
21,0.3 to 3 µM,COc1cc(-c2cc3nccc(-c4csc(N(C)C)n4)c3o2)cc(OC)c1OC [Compound C79]
22,0.3 to 3 µM,Cn1cc(-c2ccnc3cc(-c4ccc(OCC(O)CN5CCCCC5)cc4)oc23)cn1 (stereo not drawn) [Compound C38]
